Source: patent US20080249124A1, “WORTMANNIN-RAPALOG CONJUGATE AND USES THEREOF” (Wyeth, priority 2007, published 2008)
pIC50: −log10 of the molar value.

How the values were obtained:
[1] = tested on: PI3K; settings: cited from earlier work
[2] = tested on: C3H mammary model; settings: cited from earlier work
[3] = tested on: U87MG (human glioblastoma) tumor; assay: Xenograft tumor efficacy study; assay type: in vivo; settings: female nude mice; for tumor size versus control and single reference compounds: 15 mg/kg IV on day 0 and day 7, D5W vehicle; for tumor size versus mixture of reference compounds 1 and 2: 15 mg/kg IV on day 0 and day 7, mixture 10 mg/kg/5 mg/kg
Description: Female nude mice at 10 weeks of age were inoculated subcutaneously on the flank with 200 μL U87MG (human glioblastoma) tumor cell suspension. U87MG cells were suspended in full growth media and were implanted at 10 million cells per mouse. Mice were staged when tumors reached approximately 200 mm^3 in sizes. Tumor bearing mice at staging (day 0) were randomized into treatment groups (n=10). The conjugates described herein were formulated in D5W vehicle (glucose-water) and were dosed IV on day 0 and day 7. See, Table 6.
The growth of tumors was monitored twice a week for the duration of the experiment. Tumor size was measured using sliding vernier calipers, and the tumor mass was calculated using the formula (length×Width^2)/2.

[4] = tested on: tumor xenografts; settings: animals; cited from earlier work

Compound: COCC1OC(=O)c2coc3c2C1(C)C1=C(C3=O)C2CCC(O)C2(C)CC1OC(C)=O (stereo not drawn) [17β-Hydroxywortmannin]
- increase in activity relative to wortmannin ([1]; PI3K): 10 fold
- pIC50 [1]: 9.30
- anti-tumor activity ([2]; dose of 0.5 mg/kg): no inhibition
- toxicity ([2]; dose of 1.0 mg/kg): toxicity

Compound: COC[C@H]1OC(=O)/C(=C/N(C)CCCN(C)C)C2=C(O)C(=O)C3=C([C@H](OC(C)=O)C[C@@]4(C)C3CC[C@@H]4OC(=O)CCCCCCC(=O)O[C@H]3CC[C@H](C[C@@H](C)[C@@H]4CC(=O)[C@H](C)/C=C(\C)[C@@H](O)[C@@H](OC)C(=O)[C@H](C)C[C@H](C)/C=C/C=C/C=C(\C)[C@@H](OC)C[C@@H]5CC[C@@H](C)[C@@](O)(O5)C(=O)C(=O)N5CCCC[C@H]5C(=O)O4)CC3)[C@]21C (stereo partly shown) [Example 2b, N,N,N′-trimethyl-1,3-propanediamine adduct of 42,17′-linked 41-Desmethoxyrapamycin-Suberate-Wortmannin conjugate]
- tumor size versus control and single reference compounds [3]: smaller tumors than tumors treated with control or with reference compound 1 or reference compound
- tumor size versus mixture of reference compounds 1 and 2 [3]: tumors of comparable size to that achieved with a mixture of reference compounds 1 and 2

Compound: COC[C@H]1OC(=O)c2coc3c2[C@@]1(C)C1=C(C3=O)[C@@H]2CCC(=O)[C@@]2(C)C[C@H]1OC(C)=O [Wortmannin]
- PI3K inhibition [1]: irreversible inhibitor, at nanomolar concentrations
- antitumor activity against tumor xenografts [4]: antitumor activity against tumor xenografts in animals

Compound: Diallylamine Adduct of 42,17′-linked 41-Desmethoxyrapamycin-Suberate-Wortmannin Conjugate [Example 2a]
- tumor size versus control and single reference compounds [3]: smaller tumors than tumors treated with control or with reference compound 1 or reference compound

Compound: diallylamine adduct of 17-hydroxywortmannin [compound 2]
- tumor size versus mixture of reference compounds 1 and 2 [3]: tumors of comparable size to that achieved with a mixture of reference compounds 1 and 2
